Laboratory results as given in patent US10584098B2, “Quinolone-3-diarylethers” (OREGON HEALTH & SCIENCE UNIVERSITY, priority 2015, dated 2020).
Where two headings read alike, the source gives them in different places.

Key:
[1] = system: P. yoelii (Kenya strain, MR4 MRA-428); test: Single dose cure (SDC) of patent blood stage murine malaria infection; type: in vivo, Plasmodium yoelii; details: mice; for minimal effective dose: Plasmodium yoelii, po, 720 h, single dose, read-out: Lowest fully effective single dose cure P. yoelii; for lowest fully protective single-dose cure (SDC): single oral dose in PEG-400, parasite free 30 days
Protocol: As described above, mice (female, CF1, Charles River Labs) were infected intravenously with 10^5 P. yoelii (Kenya strain, MR4 MRA-428/Murine LDH Elevating Virus-Free) parasitized erythrocytes from a donor animal. Drug administration commenced the day after the animals were inoculated (Day 1). The test compounds were dissolved in PEG-400 and administered by oral gavage once. On the 5th day blood films were prepared and the extent of parasitemia was determined by microscopic examination of Giemsa stained smears. Animals remaining parasite free 30 days after the last drug dose were considered cured of their infection.

P. falciparum strain D6 = test: SYBR green antiplasmodial assay, strain D6; type: cell-based, Plasmodium falciparum
Protocol: (§1) Automated pipetting and dilution was carried out with the aid of a programmable Precision 2000 robotic station (BioTek, Winooski, Vt.). An initial parasitemia of 0.2% was obtained by addition of normal uninfected red cells to a stock culture of asynchronous parasite infected red cells (PRBC).

[2] = system: P. falciparum strain Tm90-C2B; test: SYBR green antiplasmodial assay, strain Tm90-C2B; type: cell-based, Plasmodium falciparum; details: read-out: IC50, nM, P. falciparum strain Tm90-C2B
Protocol: as §1

P. falciparum strain Dd2 = test: SYBR green antiplasmodial assay, strain Dd2; type: cell-based, Plasmodium falciparum; details: read-out: IC50, nM, P. falciparum strain Dd2
Protocol: as §1

[3] = human, microsomes
Protocol: The loss of substrate was monitored by LC/MS/MS. Midazolam was monitored as a well characterized positive control. Midazolam represents a drug with comparatively low metabolic stability. Incubations were conducted in the absence of the NADPH regenerating system to monitor for potential P450-independent metabolism.

[4] = Chemical stability in solvent / acidic conditions; type: physicochemical
Protocol: Ethyl chloroformate is then added dropwise. The reaction goes to completion in minutes upon the addition of the chloroformate forming one regioisomer in very high yield. […] Results are summarized in Scheme 1

[5] = Oral bioavailability in mice; type: in vivo; details: relative to ELQ-300
[6] = Oral bioavailability in rats; type: in vivo; details: relative to ELQ-300
P. falciparum = test: In vitro intrinsic antiplasmodial activity against all test strains; type: cell-based, Plasmodium falciparum
P. yoelii = test: 4-day suppression test in P. yoelii infected mice; type: in vivo, Plasmodium yoelii; details: dosing on 4 sequential days, smears on Day 5
[7] = target: Plasmodium falciparum cytochrome bc1 complex (Plasmodium falciparum, UniProt Q02768); test: Inhibition of cytochrome bc1 complex; type: biochemical
[8] = Stability of prodrug to metabolism
[9] = In vivo efficacy of earlier prodrug versus parent compound; details: compared to the parent compound ELQ-300
[10] = Plasmodium falciparum, D6; read-out: P. falciparum strain D6, IC50
[11] = Plasmodium falciparum, TM90, 72 h, resistant to chloroquine and atovaquone
[12] = Plasmodium falciparum, D6, 72 h; read-out: IC50, nM, P. falciparum strain D6
[13] = Plasmodium falciparum, DD2, 72 h, multidrug resistant strain
[14] = 72 h, resistant to chloroquine and atovaquone
[15] = 72 h, chloroquine sensitive strain; Table 1 of Example 4; read-out: IC50, nM, P. falciparum strain D6
[16] = single oral doses in the range of 1 to 20 mg/kg
[17] = 72 h, multidrug resistant strain

COC(=O)Oc1c(-c2ccc(Oc3ccc(OC(F)(F)F)cc3)cc2)c(C)nc2cc(OC)c(Cl)cc12 [ELQ-336, 6-chloro-7-methoxy-2-methyl-3-(4-(4-(trifluoromethoxy)phenoxy)phenyl)quinolin-4-yl methyl carbonate]
minimal effective dose [1]: 4 mg/kg
IC50 (P. falciparum strain D6; [10]): 2.5 nM

COc1cc2nc(C)c(-c3ccc(Oc4ccc(OC(F)(F)F)cc4)cc3)c(OC(=O)OCC3COC(=O)O3)c2cc1Cl (centres unmarked) [ELQ-373, 6-chloro-7-methoxy-2 methyl-3-(4-(4-(trifluoromethoxy)phenoxy)phenyl)quinolin-4-yl ((2-oxo-1,3-dioxolan-4-yl)methyl) carbonate]
minimal effective dose [1]: 4 mg/kg
IC50 (P. falciparum strain D6; [10]): 3.1 nM

O=C1C(O)=C([C@H]2CC[C@H](c3ccc(Cl)cc3)CC2)C(=O)c2ccccc21 [Atovaquone, reference compound]
IC50 [2, 11]: > 250 nM
IC50 (P. falciparum strain D6; [12]): 0.2 nM
IC50 (P. falciparum strain Dd2; [13]): 0.2 nM

COc1cc2nc(C)c(-c3ccc(Oc4ccc(OC(F)(F)F)cc4)cc3)c(OC(=O)OCC3COC(C)(C)O3)c2cc1Cl (centres unmarked) [ELQ-374, 6-chloro-7-methoxy-2-methyl-3-(4-(4-(trifluoromethoxy)phenoxy)phenyl)quinolin-4-yl ((2,2-dimethyl-1,3-dioxolan-4-yl)methyl) carbonate]
minimal effective dose [1]: 4 mg/kg
IC50 (P. falciparum strain D6; [10]): 2.7 nM

COCCOC(=O)Oc1c(-c2ccc(Oc3ccc(OC(F)(F)F)cc3)cc2)c(C)nc2cc(OC)c(Cl)cc12 [ELQ-354, 6-chloro-7-methoxy-2-methyl-3-(4-(4-(trifluoromethoxy)phenoxy)phenyl)quinolin-4-yl(2-methoxyethyl) carbonate]
minimal effective dose [1]: 3 mg/kg
IC50 (P. falciparum strain D6; [10]): 3 nM

COc1cc2nc(C)c(-c3ccc(Oc4ccc(OC(F)(F)F)cc4)cc3)c(OC(=O)OC(C)(C)C)c2cc1Cl [ELQ-358, tert-butyl (6-chloro-7-methoxy-2-methyl-3-(4-(4-(trifluoromethoxy)phenoxy)phenyl)quinolin-4-yl) carbonate]
minimal effective dose [1]: > 4 mg/kg
IC50 (P. falciparum strain D6; [10]): 6 nM

CCN(CC)CCCC(C)Nc1ccnc2cc(Cl)ccc12 (centres unmarked) [Chloroquine, reference compound]
IC50 ([2]; Plasmodium falciparum, TM90, 72 h): 98 nM
IC50 (P. falciparum strain D6; Plasmodium falciparum, D6, 72 h, read-out: IC50, nM, P. falciparum strain D6): 10 nM
IC50 (P. falciparum strain Dd2; Plasmodium falciparum, DD2, 72 h): 137 nM

C=CCOC(=O)Oc1c(-c2ccc(Oc3ccc(OC(F)(F)F)cc3)cc2)c(C)nc2cc(OC)c(Cl)cc12 [ELQ-359, allyl (6-chloro-7-methoxy-2-methyl-3-(4-(4-(trifluoromethoxy)phenoxy)phenyl)quinolin-4-yl) carbonate]
minimal effective dose [1]: 4 mg/kg
IC50 (P. falciparum strain D6; [10]): 2.5 nM

CCOC(=O)OCOc1c(-c2ccc(Oc3ccc(OC(F)(F)F)cc3)cc2)c(C)nc2cc(OC)c(Cl)cc12 [ELQ-331]
lowest fully protective single-dose cure (SDC) [1]: 2.5 mg/kg
IC50 [2, 14]: 4 nM
IC50 (P. falciparum strain D6; [15]): 6 nM
t1/2 [3]: 37.7 min

COc1cc2nc(C)c(-c3ccc(Oc4ccc(OC(F)(F)F)cc4)cc3)c(OC(=O)C(C)C)c2cc1Cl [ELQ-375, 6-chloro-7-methoxy-2-methyl-3-(4-(4-(trifluoromethoxy)phenoxy)phenyl)quinolin-4-yl isobutyrate]
minimal effective dose [1]: 4 mg/kg
IC50 (P. falciparum strain D6; [10]): 8.2 nM

COc1cc2nc(C)c(-c3ccc(Oc4ccc(OC(F)(F)F)cc4)cc3)c(OC(=O)C(C)(C)C)c2cc1Cl [ELQ-357, 6-chloro-7-methoxy-2-methyl-3-(4-(4-(trifluoromethoxy)phenoxy)phenyl)quinolin-4-yl pivalate]
minimal effective dose [1]: 4 mg/kg
IC50 (P. falciparum strain D6; [10]): 3.5 nM

CCOC(=O)Oc1c(-c2ccc(Oc3ccc(OC(F)(F)F)cc3)cc2)c(C)nc2cc(OC)c(Cl)cc12 [ELQ-337, 6-chloro-7-methoxy-2-methyl-3-(4-(4-(trifluoromethoxy)phenoxy)phenyl)quinolin-4-yl ethyl carbonate]
minimal effective dose [1]: 3 mg/kg
animals in which single dose failed ([1]; 1 mg/kg, on Day 12): 4/4
single dose cures (SDC), animals cured ([1]; doses as low as 3 mg/kg): 4/4
IC50 (P. falciparum strain D6; [10]): 2.5 nM
chemical stability ([4]; 50/50 mixtures of methanol and water at pH 3 and 8 overnight): chemically stable
oral bioavailability [5]: enhanced over ELQ-300
oral bioavailability [6]: enhanced over ELQ-300
IC50 values against all test strains (P. falciparum): low to sub-nanomolar range
ED50 (P. yoelii): 0.02 mg/kg/day
ED90 (P. yoelii): 0.05 mg/kg/day
ED99 (P. yoelii): 0.075 mg/kg/day

COc1cc2nc(C)c(-c3ccc(Oc4ccc(OC(F)(F)F)cc4)cc3)c(OC(=O)OC3CCS(=O)(=O)C3)c2cc1Cl (centres unmarked) [ELQ-355, 6-chloro-7-methoxy-2-methyl-3-(4-(4-(trifluoromethoxy)phenoxy)phenyl)quinolin-4-yl (1,1-dioxidotetrahydrothiophen-3-yl) carbonate]
minimal effective dose [1]: 4 mg/kg
IC50 (P. falciparum strain D6; [10]): 3.9 nM

COc1cc2[nH]c(C)c(-c3ccc(Oc4ccc(OC(F)(F)F)cc4)cc3)c(=O)c2cc1Cl [ELQ-300, reference compound]
inhibition of cytochrome bc1 complex [7]: sub-nanomolar
minimal effective dose [1]: > 20 mg/kg
parasitemia suppression [1, 16]: suppressed parasitemia completely
recrudescence [1, 16]: recrudescence occurred within two weeks of dosing
IC50 [2, 11]: 2 nM
IC50 (P. falciparum strain D6; [12]): 6 nM
IC50 (P. falciparum strain D6; [10]): 3.1 nM
IC50 (P. falciparum strain Dd2; [13]): 6 nM

COc1cc2nc(C)c(-c3ccc(Oc4ccc(OC(F)(F)F)cc4)cc3)c(OC(=O)c3ccccc3)c2cc1Cl [ELQ-379, 6-chloro-7-methoxy-2-methyl-3-(4-(4-(trifluoromethoxy)phenoxy)phenyl)quinolin-4-yl benzoate]
IC50 (P. falciparum strain D6; [10]): 2.5 nM

CCOC(=O)OC(C)Oc1c(-c2ccc(Oc3ccc(OC(F)(F)F)cc3)cc2)c(C)nc2cc(OC)c(Cl)cc12 (centres unmarked) [ELQ-387]
IC50 [2, 14]: 231 nM
IC50 (P. falciparum strain D6; [15]): 326 nM
IC50 (P. falciparum strain Dd2; [17]): 141 nM

COc1cc2nc(C)c(-c3ccc(Oc4ccc(OC(F)(F)F)cc4)cc3)c(OC(C)=O)c2cc1Cl [ELQ-370]
chemical stability to acid [4]: chemically unstable to mildly acidic conditions
stability in methanol [4]: decomposes rapidly in methanol

COc1cc2nc(C)c(-c3ccc(Oc4ccc(OC(F)(F)F)cc4)cc3)c(OCOC(=O)OC(C)C)c2cc1Cl [ELQ-330]
lowest fully protective single-dose cure (SDC) [1]: 5 mg/kg
IC50 [2, 14]: 47 nM
IC50 (P. falciparum strain D6; [15]): 62 nM
IC50 (P. falciparum strain Dd2; [17]): 38 nM

COc1cc2nc(C)c(-c3ccc(Oc4ccc(OC(F)(F)F)cc4)cc3)c(OC(=O)N(C)C)c2cc1Cl [ELQ-301]
stability to metabolism [8]: stable to metabolism
in vivo efficacy compared to ELQ-300 [9]: inferior in vivo efficacy
